# Like-named read-outs stand apart in the source and are kept apart here.
# Key:
# [1] = biological target: T1, neurokinin-1 (NK-1) receptor (Homo sapiens, UniProt P25103); assay: NK-1 Binding assay ([125I] Substance P competition, U373 cell membranes); settings: U373 membranes, [125I] Substance P displacement, read-out: NK-1 IC50
# T1 construct: a human glioblastoma-astrocytoma cell line that endogenously expresses the neurokinin-1 (NK-1) receptor; endogenous in cells; host or cells: U373 human glioblastoma-astrocytoma cells (membranes)
# Procedure: NK-1 Binding assay. U373 cells, a human glioblastoma-astrocytoma cell line that endogenously expresses the neurokinin-1 (NK-1) receptor, were grown in a monolayer culture at 37° C. in 5% CO2 and fed with Minimum Essential Medium (MEM) supplemented with 10% fetal bovine serum. Membranes were prepared as follows: Cells were washed twice with ice-cold phosphate-buffered saline (pH 7.4) and then incubated for 5-10 minutes with ice-cold 10 mM Tris buffer (pH 7.4) containing 5 mM EDTA. Cells were removed from plates, homogenized, and centrifuged at 32,000×g for 20 minutes. The resulting supernatant was discarded, and the pellet resuspended by homogenization in 50 mM Tris buffer (pH 7.4) containing 1 mM EDTA and centrifuged at 32,000×g for 20 minutes. The resulting supernatant was discarded, and the pellet resuspended by homogenization in NK-1 binding assay buffer (50 mM Tris-HCL (pH 7.4), 3 mM MnCl2, 200 μg/ml BSA, 5 μg/ml chymostatin, 40 μg/ml bacitracin and 4 μg/ml leupeptin).
# On the day of an experiment the membrane preparation was thawed, homogenized and diluted with NK-1 binding assay buffer to the appropriate concentration. […] Substance P, at a concentration of […], and concentrations of drugs ranging from 10000 to 0.01 nM. Samples were incubated for 30 min at 20° C. then filtered through GF/B glass fiber filters (pretreated with 1% polyethyleneimine and 0.3% Triton X-100) using a Brandel cell harvester. The filters were then washed with 10 ml ice cold 50 mM Tris-HCL (pH 7.4) containing 3 mM MgCl2. […] The amount of radioligand bound in the presence and absence of competitor was analyzed by plotting (-)log drug concentration versus the amount of radioligand specifically bound. The midpoint of the displacement curve (IC50, nM), signifies the potency.
# [2] = biological target: T2, human serotonin transporters (Homo sapiens, UniProt P31645); assay: Serotonin transporter binding assay ([3H]-citalopram competition, HEK-hSERT cell membranes)
# T2 construct: expressed in transfected cells
# Procedure: Serotonin transporter binding assay. HEK-293 cells that stably express human serotonin transporters (HEK-hSERT cells) were grown at 37° C. in 5% CO2 as a monolayer in medium consisting of EMEM supplemented with 10% fetal bovine serum and G418 sulfate (500 μg/ml). To prepare membranes for radioligand binding experiments, cells were rinsed twice with phosphate-buffered saline (138 mM NaCl, 4.1 mM KCl, 5.1 mM Na2PO4, 1.5 mM KH2PO4, 11.1 mM glucose, pH 7.4). Cells were transferred from plates to polypropylene tubes (16×100 mm), centrifuged at 1,200×g for 5 min and were frozen at −80° C. until assay. Following centrifugation, pellets were resuspended by homogenization in buffer consisting of 50 mM Tris (pH 7.7 at 25° C.), 120 mM NaCl and 5 mM KCl and then centrifuged at 32,000×g for 10 min. Following centrifugation, supernatants were discarded and pellets were resuspended in buffer consisting of 50 mM Tris (pH 7.4 at 25° C.), 150 mM NaCl and 5 mM KCl. Membrane homogenates (200 μl/plate) were incubated with 1 nM [^3H]-citalopram (specific activity=85 Ci/mmol) and increasing concentrations of test compounds for 1 hr at 25° C. in a total volume of 250 μl. The assay buffer consisted of 50 mM Tris (pH 7.4 at 25° C.), 120 mM NaCl and 5 mM KCl (pH 7.4 with conc. HCl). Plates were incubated for 1 hr at 25° C., then filtered through 0.5% PEI treated Whatman GF/B filters using a Brandel cell harvester. Filters were washed three times with 3 ml of ice-cold tris wash buffer. Non-specific binding was defined with 10 μM fluoxetine. Amount of radioligand bound in the presence and absence of competitor was analyzed by plotting (-)log drug concentration versus the amount of radioligand specifically bound. The midpoint of the displacement curve (IC50, nM), signifies the potency. Ki values can be calculated using the method of Cheng and Prusoff (Cheng and Prusoff, BiochemicalPharmacology, Vol 22, pp. 3099-3108, Pergamon Press (1973)).
# [3] = Table 1, HEK-hSERT membranes, [3H]-citalopram displacement, read-out: SERT IC50
# T2 sequence (P31645 whole entry): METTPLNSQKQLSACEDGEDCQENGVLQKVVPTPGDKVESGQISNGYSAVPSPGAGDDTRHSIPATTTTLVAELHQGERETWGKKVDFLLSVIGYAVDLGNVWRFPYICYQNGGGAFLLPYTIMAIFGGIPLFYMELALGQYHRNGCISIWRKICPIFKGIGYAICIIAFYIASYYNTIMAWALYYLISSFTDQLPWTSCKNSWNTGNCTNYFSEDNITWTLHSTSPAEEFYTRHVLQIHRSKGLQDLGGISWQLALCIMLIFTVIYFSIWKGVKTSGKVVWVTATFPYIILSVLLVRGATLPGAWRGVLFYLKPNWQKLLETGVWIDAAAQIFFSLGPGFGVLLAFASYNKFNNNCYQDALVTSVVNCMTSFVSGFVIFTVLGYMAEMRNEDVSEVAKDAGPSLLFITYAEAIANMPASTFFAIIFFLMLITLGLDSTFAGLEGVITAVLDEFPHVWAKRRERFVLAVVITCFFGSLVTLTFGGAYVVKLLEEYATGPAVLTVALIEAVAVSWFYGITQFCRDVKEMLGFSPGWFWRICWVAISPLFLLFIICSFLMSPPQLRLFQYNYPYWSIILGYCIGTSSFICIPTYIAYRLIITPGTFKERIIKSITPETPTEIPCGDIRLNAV
# T1 sequence (P25103 whole entry): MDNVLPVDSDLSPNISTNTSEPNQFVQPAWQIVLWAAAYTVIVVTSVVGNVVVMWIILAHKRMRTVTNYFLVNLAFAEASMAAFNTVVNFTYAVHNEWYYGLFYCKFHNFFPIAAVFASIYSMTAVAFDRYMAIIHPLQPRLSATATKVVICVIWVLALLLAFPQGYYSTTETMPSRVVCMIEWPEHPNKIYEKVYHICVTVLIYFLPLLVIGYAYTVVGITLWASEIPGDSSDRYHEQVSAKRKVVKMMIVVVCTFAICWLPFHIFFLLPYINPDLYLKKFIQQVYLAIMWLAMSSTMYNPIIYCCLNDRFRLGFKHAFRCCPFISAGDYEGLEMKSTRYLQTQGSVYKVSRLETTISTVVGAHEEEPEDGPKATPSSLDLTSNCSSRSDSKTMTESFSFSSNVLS
Structure (SMILES),IC50 ([1]; Table 1) [nM],"IC50 [2, 3] [nM]",IC50 [2] [nM],IC50 ([1]; Table 2) [nM],"IC50 ([2]; Table 2, HEK-hSERT membranes, [3H]-citalopram displacement, read-out: SERT IC50) [nM]"
Cc1cccc(-c2cc(COCC3(c4ccccc4)CCNCC3)cc(C(F)(F)F)c2)c1,0.01 to 100,0.01 to 100,–,–,–
Fc1ccc(-c2cc(COCC3(c4ccccc4)CCNCC3)cc(C(F)(F)F)c2)cc1Cl,0.01 to 100,0.01 to 100,–,–,–
FC(F)(F)c1cc(COCC2(c3ccccc3)CCNCC2)cc(-c2cc(C(F)(F)F)cc(C(F)(F)F)c2)c1,100 to 300,100 to 300,–,–,–
FC(F)(F)c1cc(COCC2(c3ccccc3)CCNCC2)cc(-c2c(Cl)cccc2Cl)c1,100 to 300,0.01 to 100,–,–,–
FC(F)(F)c1cc(COCC2(c3ccccc3)CCNCC2)cc(-c2cccc3c2Sc2ccccc2S3)c1,> 300,> 300,–,–,–
FC(F)(F)c1cc(COCC2(c3ccccc3)CCNCC2)cc(-c2ccc(-c3ccccc3)cc2)c1,100 to 300,0.01 to 100,–,–,–
CSc1ccc(-c2cc(COCC3(c4ccccc4)CCNCC3)cc(C(F)(F)F)c2)cc1,0.01 to 100,0.01 to 100,–,–,–
Cc1ccccc1-c1cc(COCC2(c3ccccc3)CCNCC2)cc(C(F)(F)F)c1,100 to 300,0.01 to 100,–,–,–
FC(F)(F)c1cc(COCC2(c3ccccc3)CCNCC2)cc(-c2ccccc2-c2ccccc2)c1,> 300,100 to 300,–,–,–
FC(F)(F)c1ccc(-c2cc(COCC3(c4ccccc4)CCNCC3)cc(C(F)(F)F)c2)cc1,0.01 to 100,0.01 to 100,–,–,–
Cc1cc(C)cc(-c2cc(COCC3(c4ccccc4)CCNCC3)cc(C(F)(F)F)c2)c1,> 300,0.01 to 100,–,–,–
Cc1ccc(-c2cc(COCC3(c4ccccc4)CCNCC3)cc(C(F)(F)F)c2)cc1[N+](=O)[O-],0.01 to 100,0.01 to 100,–,–,–
Fc1cccc(-c2cc(COCC3(c4ccccc4)CCNCC3)cc(C(F)(F)F)c2)c1,0.01 to 100,0.01 to 100,–,–,–
FC(F)(F)c1cc(COCC2(c3ccccc3)CCNCC2)cc(-c2ccc3ccccc3c2)c1,100 to 300,100 to 300,–,–,–
CCOc1cccc(-c2cc(COCC3(c4ccccc4)CCNCC3)cc(C(F)(F)F)c2)c1,100 to 300,0.01 to 100,–,–,–
Fc1ccccc1-c1cc(COCC2(c3ccccc3)CCNCC2)cc(C(F)(F)F)c1,0.01 to 100,0.01 to 100,–,–,–
COc1ccc(-c2ccc(C#N)nc2)cc1COCC1(c2ccccc2)CCNCC1,100 to 300,0.01 to 100,–,–,–
COc1ccc(-c2ccc(C#N)cc2)cc1COCC1(c2ccccc2)CCNCC1,0.01 to 100,0.01 to 100,–,–,–
N#Cc1ccc(-c2cc(COCC3(c4ccc(F)cc4)CCNCC3)cc(C(F)(F)F)c2)cc1,0.01 to 100,0.01 to 100,–,–,–
CN1CCC(COCc2cc(-c3ccc(C#N)cc3)cc(C(F)(F)F)c2)(c2ccccc2)CC1,0.01 to 100,–,0.01 to 100,–,–
CN1CCC(COCc2cc(-c3ccncc3)cc(C(F)(F)F)c2)(c2ccccc2)CC1,0.01 to 100,–,0.01 to 100,–,–
CN1CCC(COCc2cc(-c3ccc(C#N)cc3)cc(C(F)(F)F)c2)(c2ccc(F)cc2)CC1,0.01 to 100,–,0.01 to 100,–,–
CC(OCC1(c2ccccc2)CCNCC1)c1cc(-c2ccc(C#N)cc2)cc(C(F)(F)F)c1 (stereo not drawn),0.01 to 100,0.01 to 100,–,–,–
CC(OCC1(c2ccccc2)CCN(C)CC1)c1cc(-c2ccc(C#N)cc2)cc(C(F)(F)F)c1 (stereo not drawn),0.01 to 100,–,0.01 to 100,–,–
C[C@@H](OCC1(c2ccccc2)CCNCC1)c1cc(-c2ccc(C#N)cc2)cc(C(F)(F)F)c1,0.01 to 100,0.01 to 100,–,–,–
N#Cc1ccc(-c2cc(Br)cc(COCC3(c4ccccc4)CCNCC3)c2)cc1,0.01 to 100,0.01 to 100,–,–,–
N#Cc1ccc(-c2cc(COCC3(c4ccccc4)CCNCC3)cc(C(F)(F)F)c2)cc1F,–,–,–,0.01 to 100,0.01 to 100
